# Laboratory results: US20240245703A1, “TOPICAL APPLICATION OF AGENTS TO REDUCE SUN SENSITIVITY AND IMPROVE TOPICAL PHOTODYNAMIC THERAPY” (Wright State University, priority 2021, published 2024)
# Legend:
# [1] = system: aSMase; test: residual aSMase activity after treatment of PC12 cells with 10 micromolar agent; assay type: cell-based; settings: from Table 1 residual aSMase activity
# Description: The data were obtained in a cell-based study by adding 10 micromolar aliquots of the above agents to PC12 cells for the indicated amounts of time (usually 0.5, 6, or 24 hours). Cells were lysed and aSMase activity measured using [choline methyl-14C] sphingomyeline. The amount of aSMase activity following the treatment of the agent was compared to vehicle without any FIASM. […] The data for the listed compounds (n=276) is based on the publication by Kornhuber et al. 2008, including compounds number n=101 combined with an additional set of compounds (n=175) Kornhuber J, Muehlbacher M, Trapp S, Pechmann S, Friedl A, Reichel M, Mühle C, Terfloth L, Groemer T W, Spitzer G M, Liedl K R, Gulbins E, Tripal P. Identification of novel functional inhibitors of acid sphingomyelinase. PLOS One. 2011; 6 (8): e23852. doi: 10.1371/journal.pone.0023852. Epub 2011 Aug. 31. PMID: 21909365; PMCID: PMC3166082. The numbering of compounds is identical to the previous publication for the first 101 compounds. CID=PubChem Compound ID. Set: 1=experimental values from Kornhuber et al. 2008, 2=corrected experimental values of the previously published compounds; 3=newly investigated compounds, Acid/Base: 1=monobase, 2=monoacid, 3=bibase, 4=zwitter. Mean residual activity of ASM is given as % of the corresponding control values.
# [2] = system: aSMase; settings: cited from earlier work
# [3] = hairless mice, effect of propylene glycol; cited from earlier work
# [4] = system: PDT-induced MVP release; test: PDT-induced MVP release in skin and plasma of mice; assay type: in vivo
# Description: Next, the role of PAF and aSMase in PDT-induced MVP release was assessed. […] Next, the ability of topical PDT to generate MVP in vivo in mice, and the role of aSMase in this process, was determined. […] Two approaches were used to determine if PDT-induced MVP involved aSMase.
# The role of aSMase in PDT-mediated MVP release was evaluated in a murine system. For the data shown in FIG. 18, wild-type mice were treated with either sham, 100 μl of 5 mM IMIP, or 90% polyethylene glycol: 10% DMSO vehicle, or 1 μM TPA (as a positive control for MVP release), or PDT using 20 J/cm^2 blue light. Immediately following PDT, the treated areas were given vehicle or imipramine. At 4 hours post-treatment, the mice were euthanized and MVP were measured from duplicate 6-mm punch biopsies and plasma. The data are mean±SD fold increase in MVP normalized to tissue weight/plasma volume. * Denotes statistically significant (P<0.05) changes from sham; #statistically significant (P<0.05) changes from comparator denoted by line by two-way ANOVA; NS not statistically significant.
# To confirm the role of aSMase in PDT-induced MVP generation, PDT effects were evaluated in the absence of aSMase was evaluated in a murine system. For the data shown in FIG. 19, wild-type or aSMase-deficient (Smpd1−/−) mice underwent sham or PDT using 20 J/cm^2 blue light. At 4 hours post-treatment, the mice were euthanized and MVP were measured from duplicate 6-mm punch biopsies and plasma. The data are mean±SD fold increase in MVP normalized to tissue weight/plasma volume. * Denotes statistically significant (P<0.05) changes from sham; NS not statistically significant.
# [5] = system: PDT-induced immunosuppression; test: contact hypersensitivity (CHS) to DNFB after PDT, ear thickness; assay type: in vivo, mice; settings: aSMase-deficient (Smpd1-/-) mice, CPAF intraperitoneal
# Text: Five days later the mice underwent sensitization with the neoantigen DNFB. To test for local immunosuppression, DNFB was applied to the PDT-treated area. To test for systemic immunosuppression, the DNFB was applied to back skin at least 2 cm away from the PDT-treated area. Nine days later the mice underwent elicitation reactions to DNFB by application to one ear, with vehicle applied to the other ear. One day later the ear thickness was obtained as a measure of CHS reaction and compared to pre-treatment and vehicle-treated values. Some mice were treated with intraperitoneal CPAF as a positive control for systemic immunosuppression.
# For the data shown in FIG. 20, wild-type mice either were injected intraperitoneally with 250 ng CPAF as a positive control for immunosuppression, underwent PDT using 10 J/cm^2 blue light, or received no treatment (SHAM). […] Five days later the mice underwent sensitization with DNFB in PDT-treated (local immunosuppression) or non-PDT-treated skin (systemic immunosuppression). Nine days later the mice underwent elicitation reactions to ears with ear thickness measured at 24 hours. For the data shown in FIG. 21, wild type and aSMase-deficient (Smpd1−/−) mice underwent treatment with CPAF or PDT followed by DNFB sensitization/elicitation reactions as in FIG. 20. The data are mean±SD values. * Denotes statistically significant (P<0.05) changes from sham treatment values using two-way ANOVA.
# [6] = system: human fibroblasts which lack PAFRs; test: MVP levels in human fibroblasts which lack PAFRs; assay type: cell-based; settings: human fibroblasts lacking PAFRs, data not shown
smiles,measurement,setting,value
CN(C)CCC=C1c2ccccc2CCc2ccccc21 [Amitriptyline],potency relative to imipramine,[1],approximately three times more potent than imipramine
same,Residual ASM Activity,"[2]; 10 micromolar, PC12 cells, incubation time 0.5 h, % of corresponding control values",11.7%
same,residual aSMase activity after treatment,[2]; from Kornhuber et al. 2008,11.7%
same,absorption with propylene glycol,[3],enhances absorption
CCCCCCCCCCCCC/C=C/[C@@H](O)[C@H](CO)NC(C)=O [C-2 ceramide],MVP generation in aSMase KO mice,"[4]; topical application, aSMase KO mice, data not shown",generates MVP in the aSMase KO mice
"CCCCCCCCCCCCCCCCOC[C@H](COP(=O)([O-])OCC[N+](C)(C)C)OC(=O)NC [CPAF, carbamoyl-PAF]",immunosuppression in aSMase KO mice (CHS to DNFB),[5],resulted in similar levels of immunosuppression in comparison to wild-type mice
same,MVP levels in fibroblasts,[6],robust increases in MVP levels in response to PDT but not the PAFR agonist CPAF
"CCCCCCCCCCCCCC(=O)O[C@@H]1[C@@H](C)[C@@]2(O)[C@@H](C=C(CO)C[C@]3(O)C(=O)C(C)=C[C@@H]23)[C@@H]2C(C)(C)[C@]12OC(C)=O [TPA, 12-O-tetradecanoylphorbol-13-acetate]",MVP levels after topical TPA,"[4]; wild-type mice, 1 μM TPA, positive control, 4 h",resulted in increased levels of MVP
